Activity calls are given as the source filed them. The calls are words filed in the database; no cut-off is given here.
Key:
Staphylococcus aureus [1] = assay: Antimicrobial activity against methicillin-drug resistant Staphylococcus aureus clinical isolate 54 assessed as concentration required to eliminate 90% bacteria incubated for 18 hrs by broth-microdilution method; format: functional
Escherichia coli = assay: Antimicrobial activity against multi-drug resistant Escherichia coli clinical isolate 780 assessed as concentration required to eliminate 90% bacteria incubated for 18 hrs by broth-microdilution method; format: functional
Pseudomonas aeruginosa [2] = assay: Antimicrobial activity against multi-drug resistant Pseudomonas aeruginosa clinical isolate 86 assessed as concentration required to eliminate 90% bacteria incubated for 18 hrs by broth-microdilution method; format: functional
Pseudomonas aeruginosa [3] = assay: Antimicrobial activity against multi-drug resistant Pseudomonas aeruginosa clinical isolate 124 assessed as concentration required to eliminate 90% bacteria incubated for 18 hrs by broth-microdilution method; format: functional
Staphylococcus aureus [4] = assay: Antibacterial activity against Staphylococcus aureus ATCC 25923 assessed as fold change in MIC incubated for 18 hrs in presence of NaCl by Mueller-Hinton broth based assay; format: functional
Staphylococcus aureus [5] = assay: Antibacterial activity against Staphylococcus aureus ATCC 25923 incubated for 18 hrs in presence of ZnCl2 by Mueller-Hinton broth based assay; format: functional, organism-based
Staphylococcus aureus [6] = assay: Antibacterial activity against Staphylococcus aureus ATCC 25923 incubated for 18 hrs in presence of FeCl3 by Mueller-Hinton broth based assay; format: functional, organism-based
Pseudomonas aeruginosa [7] = assay: Antibacterial activity against Pseudomonas aeruginosa ATCC 27853 assessed as fold change in MIC incubated for 18 hrs in presence of 5% serum by broth microdilution method; format: functional
Pseudomonas aeruginosa [8] = assay: Antibacterial activity against Pseudomonas aeruginosa ATCC 27853 incubated for 18 hrs in presence of 10% serum by broth microdilution method; format: functional, organism-based
Staphylococcus aureus [9] = assay: Antibacterial activity against Staphylococcus aureus ATCC 25923 incubated for 18 hrs in presence of 10% serum by broth microdilution method; format: functional, organism-based
Staphylococcus aureus [10] = assay: Antibiofilm activity in Staphylococcus aureus ATCC 25923 assessed as inhibition of biofilm formation at 2 times of MIC incubated for 24 hrs by crystal violet staining based analysis relative to control; format: functional
Pseudomonas aeruginosa [11] = assay: Resistance fold, ratio of MIC for Pseudomonas aeruginosa ATCC 27853 measured after 20 passages in presence of gentamicin to MIC for Pseudomonas aeruginosa ATCC 27853 measured immediately in presence of gentamicin; format: functional
Pseudomonas aeruginosa [12] = assay: Synergistic antimicrobial activity against gentamicin-resistant Pseudomonas aeruginosa ATCC 27853 assessed as fractional inhibitory concentration index incubated for 18 hrs in presence of gentamicin by checkerboard microdilution method; format: functional
Staphylococcus aureus [13] = assay: Bactericidal activity against Staphylococcus aureus ATCC 25923 assessed as bacterial killing at 1 to 4 times of MIC by time-kill kinetics assay; format: functional, organism-based; details: time <= 360.0 min
Pseudomonas aeruginosa [14] = assay: Bactericidal activity against Pseudomonas aeruginosa ATCC 27853 assessed as bacterial killing measured upto 360 mins by time-kill kinetics assay; format: functional, organism-based
Staphylococcus aureus [15] = assay: Bactericidal activity against Staphylococcus aureus ATCC 25923 assessed as bacterial killing measured upto 360 mins by time-kill kinetics assay; format: functional, organism-based
Pseudomonas aeruginosa [16] = assay: Bactericidal activity against Pseudomonas aeruginosa ATCC 27853 assessed as bacterial eradication at 2 times of MIC measured within 30 mins by time-kill kinetics assay; format: functional, organism-based
Pseudomonas aeruginosa [17] = assay: Bactericidal activity against Pseudomonas aeruginosa ATCC 27853 assessed as bacterial eradication at 4 times of MIC measured within 30 mins by time-kill kinetics assay; format: functional, organism-based
Staphylococcus aureus [18] = assay: Bactericidal activity against Staphylococcus aureus ATCC 25923 assessed as bacterial eradication at 1 times of MIC measured within 90 mins by time-kill kinetics assay; format: functional, organism-based
Staphylococcus aureus [19] = assay: Bactericidal activity against Staphylococcus aureus ATCC 25923 assessed as bacterial eradication at 2 times of MIC measured after 90 mins by time-kill kinetics assay; format: functional, organism-based
Staphylococcus aureus [20] = assay: Bactericidal activity against Staphylococcus aureus ATCC 25923 assessed as bacterial eradication at 4 times of MIC measured within 30 mins by time-kill kinetics assay; format: functional, organism-based
Pseudomonas aeruginosa [21] = assay: Antibacterial activity against Pseudomonas aeruginosa ATCC 27853 assessed as inhibition of bacterial growth compound pretreated with 256 microg/ml of LPS for 1 hrs followed by bacterial addition and measured after 18 hrs by absorbance based assay; format: functional, organism-based
Cell membrane = assay: Induction of inner membrane permeabilization in Escherichia coli ML-35 ATCC 43837 assessed as increase in […] measured for 135 mins by ONPG based analysis; format: subcellular
DNA = assay: Binding affinity to Staphylococcus aureus ATCC 25923 DNA at 2 times of MIC measured after 30 mins by agarose gel electrophoresis; format: nucleic-acid assay
Pseudomonas aeruginosa [22] = assay: Induction of morphological changes in Pseudomonas aeruginosa ATCC 27853 assessed as content leakage at 2 times of MIC incubated for 30 to 120 mins by SEM analysis; format: functional, organism-based; details: time 30-120 min
Pseudomonas aeruginosa [23] = assay: Induction of morphological changes in Pseudomonas aeruginosa ATCC 27853 assessed as blister formation at 2 times of MIC incubated for 30 to 120 mins by SEM analysis; format: functional, organism-based; details: time 30-120 min
Staphylococcus aureus [24] = assay: Induction of morphological changes in Staphylococcus aureus ATCC 25923 assessed as cell adhesion at 2 times of MIC incubated for 30 to 120 mins by SEM analysis; format: functional, organism-based; details: time 30-120 min
Staphylococcus aureus [25] = assay: Induction of morphological changes in Staphylococcus aureus ATCC 25923 assessed as blister formation at 2 times of MIC incubated for 30 to 120 mins by SEM analysis; format: functional, organism-based; details: time 30-120 min
[26] = Toxicity in male Balb/c mouse assessed as mortality at 80 mg/kg, ip measured after 7 days relative to control; format: organism-based; details: in vivo, time 7 day
Klebsiella pneumoniae [27] = assay: Antibacterial activity against Klebsiella pneumoniae ATCC 700603 infected in male Balb/c mouse model of pneumonia assessed as decrease in bacterial load in lung at 2.5 to 10 mg/kg, ip administered at 4 and 12 hrs post-infected and measured after 24 hrs by agar plate method; format: functional, organism-based; details: dose 2.5-10 mg/kg, time 20.0 hrs
Klebsiella pneumoniae [28] = assay: Antibacterial activity against Klebsiella pneumoniae ATCC 700603 infected in male Balb/c mouse model of pneumonia assessed as decrease in decrease in TNF-alpha level in lung at 2.5 to 10 mg/kg, ip administered at 4 and 12 hrs post-infected and measured after 24 hrs by ELISA; format: functional, organism-based; details: dose 2.5-10 mg/kg, time 20.0 hrs
Klebsiella pneumoniae [29] = assay: Antibacterial activity against Klebsiella pneumoniae ATCC 700603 infected in male Balb/c mouse model of pneumonia assessed as decrease in inflammatory cell infiltration in […] at 2.5 mg/kg, ip administered at 4 and 12 hrs post-infected and measured after 24 hrs by H and E staining based analysis; format: functional, organism-based; details: time 20.0 hrs
Klebsiella pneumoniae [30] = assay: Antibacterial activity against Klebsiella pneumoniae ATCC 700603 infected in male Balb/c mouse model of pneumonia assessed as increase in alveoli expansion in lung at 2.5 mg/kg, ip administered at 4 and 12 hrs post-infected and measured after 24 hrs by H and E staining based analysis; format: functional, organism-based; details: time 20.0 hrs
Staphylococcus aureus [31] = assay: Antibacterial activity against methicillin-resistant Staphylococcus aureus ATCC 33591 infected in male Balb/c mouse model of full thickness skin wound assessed as reduction in bacterial load in skin at 1 mg/ml pre-infected with bacteria for 1 hrs followed by compound administration at 1,24,48 and 72 hrs post infection and measured 60 hrs post infection by agar plate method; format: functional, organism-based; details: time 59.0 hrs

**Q.** With H-RRWFRRWRRWFR-NH2 as the substance, how does the EC90 (Staphylococcus aureus [1]) read?
**A.** The EC90 was 3.42 µM.

**Q.** And the EC90 (Escherichia coli)?
**A.** Its EC90 is 5.08 µM.

**Q.** What about the EC90 (Pseudomonas aeruginosa [2]) of the same substance?
**A.** The EC90 was 0.574 µM.

**Q.** And the EC90 (Pseudomonas aeruginosa [3])?
**A.** Its EC90 is 0.78 µM.

**Q.** And the “fold change (FC)” value (Staphylococcus aureus [4])?
**A.** Its value is 2.

**Q.** And the Activity (Staphylococcus aureus [5])?
**A.** Its Activity is “Active”.

**Q.** And the Activity (Staphylococcus aureus [6])?
**A.** Its Activity is “Active”.

**Q.** And the “fold change (FC)” value (Pseudomonas aeruginosa [7])?
**A.** Its value is 64.

**Q.** And the Activity (Pseudomonas aeruginosa [8])?
**A.** The Activity was “inactive”.

**Q.** And the Activity (Staphylococcus aureus [9])?
**A.** The Activity was “inactive”.

**Q.** And the “inhibition (INH)” value (Staphylococcus aureus [10])?
**A.** The value was about 75%.

**Q.** And the “fold change (FC)” value (Pseudomonas aeruginosa [11])?
**A.** Its value is “<=2”.

**Q.** What about the “fractional inhibitory concentration index (FICI)” value (Pseudomonas aeruginosa [12]) of the same substance?
**A.** The value was 0.5.

**Q.** And the Activity (Staphylococcus aureus [13])?
**A.** Its Activity is “Time-dependent-effect”.

**Q.** What about the Activity (Pseudomonas aeruginosa [14]) of the same substance?
**A.** Its Activity is “Dose-dependent-effect”.

**Q.** And the Activity (Staphylococcus aureus [15])?
**A.** Its Activity is “Dose-dependent-effect”.

**Q.** What about the Activity (Pseudomonas aeruginosa [16]) of the same substance?
**A.** Its Activity is “Active”.

**Q.** What about the Activity (Pseudomonas aeruginosa [17]) of the same substance?
**A.** The Activity was “Active”.

**Q.** And the Activity (Staphylococcus aureus [18])?
**A.** Its Activity is “Active”.

**Q.** What about the Activity (Staphylococcus aureus [19]) of the same substance?
**A.** The Activity was “Active”.

**Q.** And the Activity (Staphylococcus aureus [20])?
**A.** The Activity was “Active”.

**Q.** What about the Activity (Pseudomonas aeruginosa [21]) of the same substance?
**A.** The Activity was “Not active; Compound Binds To Lps To Exert Its Activity”.

**Q.** And the Activity (Cell membrane)?
**A.** The Activity was “Active; Lower Concentration Of Compound Is Sufficient To Disrupt Inner Membrane”.

**Q.** What about the Activity (DNA) of the same substance?
**A.** The Activity was “Active”.

**Q.** What about the Activity (Pseudomonas aeruginosa [22]) of the same substance?
**A.** The Activity was “Active”.

**Q.** And the Activity (Pseudomonas aeruginosa [23])?
**A.** The Activity was “Active”.

**Q.** And the Activity (Staphylococcus aureus [24])?
**A.** Its Activity is “Active”.

**Q.** And the Activity (Staphylococcus aureus [25])?
**A.** Its Activity is “Active”.

**Q.** And the mortality at 168 h [26]?
**A.** The mortality at 168 h was 25%.

**Q.** What about the Activity (Klebsiella pneumoniae [27]) of the same substance?
**A.** Its Activity is “Active”.

**Q.** What about the Activity (Klebsiella pneumoniae [28]) of the same substance?
**A.** The Activity was “Active”.

**Q.** And the Activity (Klebsiella pneumoniae [29])?
**A.** Its Activity is “Active”.

**Q.** What about the Activity (Klebsiella pneumoniae [30]) of the same substance?
**A.** The Activity was “Active”.

**Q.** What about the Activity (Staphylococcus aureus [31]) of the same substance?
**A.** Its Activity is “Active”.
